Assay results taken from patent US20130090333A1, “BENZOXAZINE DERIVATIVES AS CRAC MODULATORS” (Hoffmann-La Roche Inc., priority 2011, published 2013).
Read-outs that look alike come from different tables or passages of the source.

Experiments:
[1] = system: IL-2 production in Jurkat cell (ATCC); experiment: Jurkat IL-2 Production Assay; assay type: cell-based; details: Jurkat cells, 18-20 h incubation, serum/stimulant variant (1% FBS/PHA or 30% FBS/PMA+ionomycin) not given
Description: Jurkat IL-2 Production Assay Cell: Jurkat cell (ATCC) was grown in RPMI 1640 with 10% FBS and 1% penicillin/streptomycin. The cell density was kept at 1.2˜1.8×10^6/mL in culture flask before seeding into culture plate, and the cell density in the plate was 0.5×10^6/2004/well. Culture Media: RPMI 1640 with 1% FBS or 30% FBS for high serum assay. Test Compound: Serial dilution was done in 100% DMSO, and intermediate dilution was done with RPMI 1640 medium with 1% FBS. The DMSO final concentration in culture well was 0.25%. Stimulant: PHA (Sigma#L9017-10MG) was used for the assay with 1% FBS in culture medium, and added after 10 minutes exposure of cell to compound/DMSO. The PHA final concentration in culture well was 5 μg/mL. PMA (Sigma# P-8139 5MG)/Ionomycin (Sigma# I0634-5MG) was used for the assay with 30% FBS in culture medium, and added at same time point as the 1% FBS culture assay. The final concentration of PMA was 50 ng/mL, and Ionomycin final concentration was 500 ng/mL. Incubation: At 37° C. with 5% CO2 and 95% humidity for 18 h˜20 h. IC50: IC50 was calculated with the data analysis software XLfit4, General Pharmacology model 251.

[2] = system: T cell IL-2 production in human whole blood; experiment: Human Whole Blood Assay (inhibition of T cell IL-2 production); assay type: cell-based; details: 10 μM Thapsigargin overnight, plasma IL-2 by AlphaLISA, read-out: HWB
Description: Inhibition of T cell IL-2 production CRAC compounds were tested in human whole blood from normal donors. 200 μl of human whole blood was aliquoted into each well of a round bottom 96 well plate. Concentration-response curves were generated for test compounds and CsA (as controls) by performing serial dilutions of the compounds and incubating each concentration in a single well for 30 min (experiment was performed in triplicate). Following incubation, the blood was stimulated with 10 μM Thapsigargin (SIGMA) overnight at 37° C. IL-2 concentrations in the plasma were determined by AlphaLISA IL-2 assay (Perkin Elmer). Data analysis was performed using GraphPad PRISMS.

| Molecule | IC50 ([1]; Homo sapiens) [µM] | IC50 ([2]; T-cell) [µM] | also measured |
| --- | --- | --- | --- |
| Cc1cc(C(F)(F)F)ccc1-c1ccc2c(c1)OCC(c1c(F)cccc1F)N2 (centres unmarked) [Example 1, 3-(2,6-Difluoro-phenyl)-7-(2-methyl-4-trifluoromethyl-phenyl)-3,4-dihydro-2H-benzo[1,4]oxazine] | 0.12 |  |  |
| Cn1nc(-c2cccnc2)nc1-c1ccc2c(c1)OCC(c1c(F)cccc1F)N2 (centres unmarked) [Example 9, 3-(2,6-Difluoro-phenyl)-7-(2-methyl-5-pyridin-3-yl-2H-[1,2,4]triazol-3-yl)-3,4-dihydro-2H-benzo[1,4]oxazine] | 0.31 |  |  |
| Cc1sc(-c2ccccn2)nc1-c1ccc2c(c1)OCC(c1c(F)cccc1F)N2 (centres unmarked) [Example 11, 3-(2,6-Difluoro-phenyl)-7-(5-methyl-2-pyridin-2-yl-thiazol-4-yl)-3,4-dihydro-2H-benzo[1,4]oxazine] | 0.12 | 1.82 |  |
| CCc1sc(-c2ccccn2)nc1-c1ccc2c(c1)OCC(c1c(F)cccc1F)N2 (centres unmarked) [Example 13, 3-(2,6-Difluoro-phenyl)-7-(5-ethyl-2-pyridin-2-yl-thiazol-4-yl)-3,4-dihydro-2H-benzo[1,4]oxazine] |  | 1.94 |  |
| CCc1cc(-c2nc(-c3ccc4c(c3)OCC(c3c(F)cccc3F)N4)c(CC)s2)ccn1 (centres unmarked) [Example 18, 3-(2,6-Difluoro-phenyl)-7-[5-ethyl-2-(2-ethyl-pyridin-4-yl)-thiazol-4-yl]-3,4-dihydro-2H-benzo[1,4]oxazine] |  | 6.15 |  |
| CCc1sc(-c2ncco2)nc1-c1ccc2c(c1)OCC(c1c(F)cccc1F)N2 (centres unmarked) [Example 19, 3-(2,6-Difluoro-phenyl)-7-(5-ethyl-2-oxazol-2-yl-thiazol-4-yl)-3,4-dihydro-2H-benzo[1,4]oxazine] |  | 0.65 |  |
| COc1cc(C)c(-c2ccc3c(c2)OCC(c2c(F)cccc2F)N3)cn1 (centres unmarked) [Example 21, 3-(2,6-Difluoro-phenyl)-7-(6-methoxy-4-methyl-pyridin-3-yl)-3,4-dihydro-2H-benzo[1,4]oxazine] | 0.28 |  |  |
| Cc1cc(Cl)ncc1-c1ccc2c(c1)OCC(c1c(F)cccc1F)N2 (centres unmarked) [Example 23, 7-(6-Chloro-4-methyl-pyridin-3-yl)-3-(2,6-difluoro-phenyl)-3,4-dihydro-2H-benzo[1,4]oxazine] | 0.32 |  |  |
| Cc1cc(-c2ncco2)ncc1-c1ccc2c(c1)OCC(c1c(F)cccc1F)N2 (centres unmarked) [Example 24, 3-(2,6-Difluoro-phenyl)-7-(4-methyl-6-oxazol-2-yl-pyridin-3-yl)-3,4-dihydro-2H-benzo[1,4]oxazine] | 0.34 |  |  |
| Cc1cc(-c2cnc(N)nc2)ncc1-c1ccc2c(c1)OCC(c1c(F)cccc1F)N2 (centres unmarked) [Example 25, 5-(5-(3-(2,6-difluorophenyl)-3,4-dihydro-2H-benzo[b][1,4]oxazin-7-yl)-4-methylpyridin-2-yl)pyrimidin-2-amine] | 0.66 |  |  |
| Cc1ncc(-c2cc(C)c(-c3ccc4c(c3)OCC(c3c(F)cccc3F)N4)cn2)s1 (centres unmarked) [Example 26, 3-(2,6-difluorophenyl)-7-(4-methyl-6-(2-methylthiazol-5-yl)pyridin-3-yl)-3,4-dihydro-2H-benzo[b][1,4]oxazine] | 0.21 |  |  |
| Cc1cc(-c2nnn(C)n2)ncc1-c1ccc2c(c1)OCC(c1c(F)cccc1F)N2 (centres unmarked) [Example 27, 3-(2,6-difluorophenyl)-7-(4-methyl-6-(2-methyl-2H-tetrazol-5-yl)pyridin-3-yl)-3,4-dihydro-2H-benzo[b][1,4]oxazine] | 0.67 |  |  |
| Cc1ccc(-c2ncco2)cc1-c1ccc2c(c1)OCC(c1c(F)cccc1F)N2 (centres unmarked) [Example 28, 3-(2,6-Difluoro-phenyl)-7-(2-methyl-5-oxazol-2-yl-phenyl)-3,4-dihydro-2H-benzo[1,4]oxazine] |  | 1 |  |
| Cc1cc(C(F)(F)F)ccc1-c1ccc2c(c1)OCC(c1c(F)cccc1Cl)N2 (centres unmarked) [Example 29, 3-(2-Chloro-6-fluoro-phenyl)-7-(2-methyl-4-trifluoromethyl-phenyl)-3,4-dihydro-2H-benzo[1,4]oxazine] | 0.16 | 5.33 |  |
| Cc1ccc(C(F)(F)F)cc1-c1ccc2c(c1)OCC(c1c(F)cccc1Cl)N2 (centres unmarked) [Example 30, 3-(2-Chloro-6-fluoro-phenyl)-7-(2-methyl-5-trifluoromethyl-phenyl)-3,4-dihydro-2H-benzo[1,4]oxazine] | 0.22 |  |  |
| Cc1sc(-c2ccccn2)nc1-c1ccc2c(c1)OCC(c1c(F)cccc1Cl)N2 (centres unmarked) [Example 31, 3-(2-Chloro-6-fluoro-phenyl)-7-(5-methyl-2-pyridin-2-yl-thiazol-4-yl)-3,4-dihydro-2H-benzo[1,4]oxazine] | 0.14 | 3.55 |  |
| COc1cc(C)c(-c2ccc3c(c2)OCC(c2c(F)cccc2Cl)N3)cn1 (centres unmarked) [Example 33, 3-(2-Chloro-6-fluoro-phenyl)-7-(6-methoxy-4-methyl-pyridin-3-yl)-3,4-dihydro-2H-benzo[1,4]oxazine] | 0.38 |  |  |
| Cn1nc(C(F)(F)F)cc1-c1ccc2c(c1)OCC(c1ccccc1Cl)N2 (centres unmarked) [Example 34, 3-(2-chlorophenyl)-7-(1-methyl-3-(trifluoromethyl)-1H-pyrazol-5-yl)-3,4-dihydro-2H-benzo[b][1,4]oxazine] | 0.35 |  |  |
| COc1cc(C)c(-c2ccc3c(c2)OCC(c2ccccc2Cl)N3)cn1 (centres unmarked) [Example 35, 3-(2-chlorophenyl)-7-(6-methoxy-4-methylpyridin-3-yl)-3,4-dihydro-2H-benzo[b][1,4]oxazine] | 0.73 |  |  |
| (R)-3-(2,6-Difluoro-phenyl)-7-(2-methyl-4-trifluoromethyl-phenyl)-3,4-dihydro-2H-benzo[1,4]oxazine or (S)-3-(2,6-Difluoro-phenyl)-7-(2-methyl-4-trifluoromethyl-phenyl)-3,4-dihydro-2H-benzo[1,4]oxazine [Example 2] |  |  | IC50 [2]: 3.16 µM; IC50 [1]: 0.08 µM |
| (S)-3-(2,6-Difluoro-phenyl)-7-(2-methyl-4-trifluoromethyl-phenyl)-3,4-dihydro-2H-benzo[1,4]oxazine or (R)-3-(2,6-Difluoro-phenyl)-7-(2-methyl-4-trifluoromethyl-phenyl)-3,4-dihydro-2H-benzo[1,4]oxazine [Example 3] |  |  | IC50 [1]: 0.35 µM |

The remaining molecules from weak to strong by IC50 ([1]; Homo sapiens), led by results:

| IC50 ([1]; Homo sapiens) [µM] | IC50 ([2]; T-cell) [µM] | Molecule | also measured |
| --- | --- | --- | --- |
| 0.11 |  | CCn1nc(-c2cnccn2)cc1-c1ccc2c(c1)OCC(c1c(F)cccc1F)N2 (centres unmarked) [Example 8, 3-(2,6-Difluoro-phenyl)-7-(2-ethyl-5-pyrazin-2-yl-2H-pyrazol-3-yl)-3,4-dihydro-2H-benzo[1,4]oxazine] |  |
| 0.1 | 3.22 | Cc1ccc(C(F)(F)F)cc1-c1ccc2c(c1)OCC(c1c(F)cccc1F)N2 (centres unmarked) [Example 4, 3-(2,6-difluoro-phenyl)-7-(2-methyl-5-trifluoromethyl-phenyl)-3,4-dihydro-2H-benzo[1,4]oxazine] |  |
| 0.1 | 0.91 | Cn1nc(C(F)(F)F)cc1-c1ccc2c(c1)OCC(c1c(F)cccc1F)N2 (centres unmarked) [Example 5, 3-(2,6-Difluoro-phenyl)-7-(2-methyl-5-trifluoromethyl-2H-pyrazol-3-yl)-3,4-dihydro-2H-benzo[1,4]oxazine] |  |
| 0.09 | 0.51 | CCn1nc(-c2cccnc2)nc1-c1ccc2c(c1)OCC(c1c(F)cccc1F)N2 (centres unmarked) [Example 10, 3-(2,6-Difluoro-phenyl)-7-(2-ethyl-5-pyridin-3-yl-2H-[1,2,4]triazol-3-yl)-3,4-dihydro-2H-benzo[1,4]oxazine] |  |
| 0.09 |  | CCS(=O)(=O)c1cc(C)c(-c2ccc3c(c2)OCC(c2c(F)cccc2F)N3)cn1 (centres unmarked) [Example 22, 3-(2,6-difluorophenyl)-7-(6-(ethylsulfonyl)-4-methylpyridin-3-yl)-3,4-dihydro-2H-benzo[b][1,4]oxazine] |  |
| 0.09 |  | Cc1sc(-c2cccnc2)nc1-c1ccc2c(c1)OCC(c1ccccc1Cl)N2 (centres unmarked) [Example 36, 3-(2-chlorophenyl)-7-(5-methyl-2-(pyridin-3-yl)thiazol-4-yl)-3,4-dihydro-2H-benzo[b][1,4]oxazine] |  |
| 0.07 |  | CCc1sc(-c2cnccn2)nc1-c1ccc2c(c1)OCC(c1ccccc1Cl)N2 (centres unmarked) [Example 37, 3-(2-chlorophenyl)-7-(5-ethyl-2-(pyrazin-2-yl)thiazol-4-yl)-3,4-dihydro-2H-benzo[b][1,4]oxazine] |  |
| 0.06 |  | Cc1sc(-c2cnccn2)nc1-c1ccc2c(c1)OCC(c1c(F)cccc1F)N2 (centres unmarked) [Example 15, 3-(2,6-difluorophenyl)-7-(5-methyl-2-(pyrazin-2-yl)thiazol-4-yl)-3,4-dihydro-2H-benzo[b][1,4]oxazine] |  |
| 0.05 | 0.58 | Cc1sc(-c2cccnc2)nc1-c1ccc2c(c1)OCC(c1c(F)cccc1Cl)N2 (centres unmarked) [Example 32, 3-(2-Chloro-6-fluoro-phenyl)-7-(5-methyl-2-pyridin-3-yl-thiazol-4-yl)-3,4-dihydro-2H-benzo[1,4]oxazine] |  |
